Measurements as given in patent US9545105B2, “1-(heterocyclic carbonyl) piperidines” (BAYER INTELLECTUAL PROPERTY GMBH, priority 2010, dated 2017).

Test system: not listed separately
Assay: log P by HPLC on reversed-phase column (C 18), EEC Directive 79/831 Annex V.A8
Assay type: physicochemical
Details: HPLC on reversed-phase column (C 18); 40° C.; 0.1% aqueous formic acid and acetonitrile; linear gradient 10% to 90% acetonitrile
Method: In table 1, the log P values were determined in accordance with EEC Directive 79/831 Annex V.A8 by HPLC (High Performance Liquid Chromatography) on a reversed-phase column (C 18), using the method described below: Temperature: 40° C.; Mobile phases: 0.1% aqueous formic acid and acetonitrile; linear gradient from 10% acetonitrile to 90% acetonitrile. Calibration was carried out using unbranched alkan-2-ones (comprising 3 to 16 carbon atoms) with known log P values (determination of the log P values by the retention times using linear interpolation between two successive alkanones). lambda-max-values were determined using UV-spectra from 200 nm to 400 nm and the peak values of the chromatographic signals.

Compound | logP
Cc1cccc(CC2CCCCN2C(=O)c2c(C(F)F)nn(C)c2F)c1 (stereo not drawn) [Example 144] | 3.44
CCc1nn(C)c(F)c1C(=O)N1CCCCC1c1cccc(Cl)c1Cl (stereo not drawn) [Example 72] | 3.62
Cn1nc(C(F)F)c(C(=O)N2CCCCC2c2ccc(Br)cc2)c1F (stereo not drawn) [Example 104] | 3.60
Cc1nc(C(F)F)c(C(=O)N2CCCCC2Cc2ccccc2C)s1 (stereo not drawn) [Example 142] | 3.50
CCc1nn(C)c(F)c1C(=O)N1CCCCC1c1cccc(Oc2ccccc2)c1 (stereo not drawn) [Example 112] | 3.96
Cc1cc(C)cc(C2CCCCN2C(=O)c2c(C(F)(F)F)cn(C)c2F)c1 (stereo not drawn) [Example 34] | 4.27
Cc1cc(C(=O)N2CCCCC2Cc2ccccc2)c(C)o1 (stereo not drawn) [Example 132] | 3.58
Cc1cccc(CC2CCCCN2C(=O)c2sc(C)nc2C(F)F)c1 (stereo not drawn) [Example 145] | 3.57
Cn1nc(C(F)F)c(C(=S)N2CCCCC2c2ccc(Br)cc2)c1F (stereo not drawn) [Example 105] | 4.29
Cc1cccc(CC2CCCCN2C(=O)c2cc(C)oc2C)c1 (stereo not drawn) [Example 143] | 3.96
Cc1nn(C)c(F)c1C(=O)N1CCCCC1c1cccc(Oc2ccccc2)c1 (stereo not drawn) [Example 113] | 3.60
Cc1cc(C(=O)N2CCCCC2c2cccc(Br)c2)c(C)o1 (stereo not drawn) [Example 93] | 4.11
Cn1nc(C(F)F)c(C(=O)N2CCCCC2c2ccc3c(c2)OCCO3)c1F (stereo not drawn) [Example 65] | 2.75
Cc1cc(C(=O)N2CCCCC2c2cccc(I)c2)c(C)o1 (stereo not drawn) [Example 116] | 4.36
Cn1nc(C(F)F)c(C(=O)N2CCCCC2c2ccc(Cl)cc2Cl)c1Cl (stereo not drawn) [Example 80] | 4.06
Cc1nn(C)c(F)c1C(=O)N1CCCCC1Cc1ccccc1 (stereo not drawn) [Example 129] | 2.54

More lines, now with the values ahead:

logP | Compound
4.26 | Cn1nc(C(F)F)c(C(=O)N2CCCCC2CCOc2ccc(Cl)cc2Cl)c1Cl (stereo not drawn) [Example 184]
4.11 | Cc1cc(C)cc(OCCC2CCCCN2C(=O)c2c(C(F)F)nn(C)c2Cl)c1 (stereo not drawn) [Example 180]
3.17 | COc1ccccc1CC1CCCCN1C(=O)c1c(C(F)F)nn(C)c1F (stereo not drawn) [Example 157]
3.74 | Cn1nc(C(F)F)c(C(=O)N2CCCCC2CCOc2ccc(C(F)(F)F)cn2)c1Cl (stereo not drawn) [Example 195]
3.46 | Cc1ccc(CC2CCCCN2C(=O)c2c(C(F)F)nn(C)c2F)cc1 (stereo not drawn) [Example 147]
3.92 | Cc1cc(C)cc(OCCC2CCCCN2C(=O)c2c(C(F)F)nn(C)c2F)c1 (stereo not drawn) [Example 181]
4.31 | Cn1nc(C(F)F)c(C(=O)N2CCCCC2CCOc2ccc(-c3ccccc3)cc2)c1F (stereo not drawn) [Example 189]
4.06 | CC(c1ccccc1Cl)C1CCCCN1C(=O)c1c(C(F)F)nn(C)c1Cl (stereo not drawn) [Example 164]
3.87 | COc1ccccc1CC1CCCCN1C(=S)c1c(C(F)F)nn(C)c1F (stereo not drawn) [Example 160]

Test system: Alternaria solani
Assay: In vivo preventive test on Alternaria solani (tomato)
Details: 500 ppm of active ingredient, evaluated 7 days after inoculation
Method: Solvent: 49 parts by weight of N,N-dimethylformamide Emulsifier: 1 part by weight of Alkylarylpolyglycolether To produce a suitable preparation of active compound, 1 part by weight of active compound is mixed with the stated amounts of solvent and emulsifier, and the concentrate is diluted with water to the desired concentration. To test for preventive activity, young plants are sprayed with the preparation of active compound at the stated rate of application. One day after this treatment, the plants are inoculated with an aqueous spore suspension of Alternaria solani. The plants remain for one day in an incubation cabinet at approximately 22° C. and a relative atmospheric humidity of 100%. Then the plants are placed in an incubation cabinet at approximately 20° C. and a relative atmospheric humidity of 96%. The test is evaluated 7 days after the inoculation. 0% means an efficacy which corresponds to that of the untreated control while an efficacy of 100% means that no disease is observed.

Compound | Efficacy [%]
Cc1cccc(CC2CCCCN2C(=O)c2c(C(F)F)nn(C)c2F)c1 (stereo not drawn) [Example 144] | 100
CCc1nn(C)c(F)c1C(=O)N1CCCCC1c1cccc(Cl)c1Cl (stereo not drawn) [Example 72] | 95
Cn1nc(C(F)F)c(C(=O)N2CCCCC2c2ccc(Br)cc2)c1F (stereo not drawn) [Example 104] | 100
Cc1nc(C(F)F)c(C(=O)N2CCCCC2Cc2ccccc2C)s1 (stereo not drawn) [Example 142] | 94
Cn1nc(C(F)F)c(C(=O)N2CCCCC2CCOc2ccc(Cl)cc2Cl)c1Cl (stereo not drawn) [Example 184] | 95
CCc1nn(C)c(F)c1C(=O)N1CCCCC1c1cccc(Oc2ccccc2)c1 (stereo not drawn) [Example 112] | 94
Cc1cc(C)cc(OCCC2CCCCN2C(=O)c2c(C(F)F)nn(C)c2Cl)c1 (stereo not drawn) [Example 180] | 80
Cc1cc(C)cc(C2CCCCN2C(=O)c2c(C(F)(F)F)cn(C)c2F)c1 (stereo not drawn) [Example 34] | 90
COc1ccccc1CC1CCCCN1C(=O)c1c(C(F)F)nn(C)c1F (stereo not drawn) [Example 157] | 100
Cn1nc(C(F)F)c(C(=O)N2CCCCC2CCOc2ccc(C(F)(F)F)cn2)c1Cl (stereo not drawn) [Example 195] | 100
Cc1cc(C(=O)N2CCCCC2Cc2ccccc2)c(C)o1 (stereo not drawn) [Example 132] | 90
Cc1cccc(CC2CCCCN2C(=O)c2sc(C)nc2C(F)F)c1 (stereo not drawn) [Example 145] | 75
Cc1ccc(CC2CCCCN2C(=O)c2c(C(F)F)nn(C)c2F)cc1 (stereo not drawn) [Example 147] | 100
Cn1nc(C(F)F)c(C(=S)N2CCCCC2c2ccc(Br)cc2)c1F (stereo not drawn) [Example 105] | 100
Cc1cccc(CC2CCCCN2C(=O)c2cc(C)oc2C)c1 (stereo not drawn) [Example 143] | 80
Cc1nn(C)c(F)c1C(=O)N1CCCCC1c1cccc(Oc2ccccc2)c1 (stereo not drawn) [Example 113] | 94
Cc1cc(C)cc(OCCC2CCCCN2C(=O)c2c(C(F)F)nn(C)c2F)c1 (stereo not drawn) [Example 181] | 100
Cc1cc(C(=O)N2CCCCC2c2cccc(Br)c2)c(C)o1 (stereo not drawn) [Example 93] | 90
Cn1nc(C(F)F)c(C(=O)N2CCCCC2c2ccc3c(c2)OCCO3)c1F (stereo not drawn) [Example 65] | 90
Cc1cc(C(=O)N2CCCCC2c2cccc(I)c2)c(C)o1 (stereo not drawn) [Example 116] | 78
Cn1nc(C(F)F)c(C(=O)N2CCCCC2CCOc2ccc(-c3ccccc3)cc2)c1F (stereo not drawn) [Example 189] | 100
CC(c1ccccc1Cl)C1CCCCN1C(=O)c1c(C(F)F)nn(C)c1Cl (stereo not drawn) [Example 164] | 89
COc1ccccc1CC1CCCCN1C(=S)c1c(C(F)F)nn(C)c1F (stereo not drawn) [Example 160] | 90
Cn1nc(C(F)F)c(C(=O)N2CCCCC2c2ccc(Cl)cc2Cl)c1Cl (stereo not drawn) [Example 80] | 100
Cc1nn(C)c(F)c1C(=O)N1CCCCC1Cc1ccccc1 (stereo not drawn) [Example 129] | 95

Test system: Pyrenophora teres
Assay: In vivo preventive test on Pyrenophora teres (barley)
Details: 500 ppm of active ingredient, evaluated 7-9 days after inoculation
Method: Solvent: 49 parts by weight of N,N-dimethylformamide Emulsifier: 1 part by weight of alkylaryl polyglycol ether To produce a suitable preparation of active compound, 1 part by weight of active compound is mixed with the stated amounts of solvent and emulsifier, and the concentrate is diluted with water to the desired concentration. To test for preventive activity, young plants are sprayed with the preparation of active compound at the stated rate of application. One day after this treatment, the plants are inoculated with an aqueous spore suspension of Pyrenophora teres. The plants remain for 48 hours in an incubation cabinet at 22° C. and a relative atmospheric humidity of 100%. Then the plants are placed in a greenhouse at a temperature of approximately 20° C. and a relative atmospheric humidity of approximately 80%. The test is evaluated 7-9 days after the inoculation. 0% means an efficacy which corresponds to that of the untreated control while an efficacy of 100% means that no disease is observed.

Compound | Efficacy [%]
Cc1cccc(CC2CCCCN2C(=O)c2c(C(F)F)nn(C)c2F)c1 (stereo not drawn) [Example 144] | 100
CCc1nn(C)c(F)c1C(=O)N1CCCCC1c1cccc(Cl)c1Cl (stereo not drawn) [Example 72] | 95
Cn1nc(C(F)F)c(C(=O)N2CCCCC2c2ccc(Br)cc2)c1F (stereo not drawn) [Example 104] | 95
Cc1nc(C(F)F)c(C(=O)N2CCCCC2Cc2ccccc2C)s1 (stereo not drawn) [Example 142] | 95
Cn1nc(C(F)F)c(C(=O)N2CCCCC2CCOc2ccc(Cl)cc2Cl)c1Cl (stereo not drawn) [Example 184] | 100
Cc1cc(C)cc(OCCC2CCCCN2C(=O)c2c(C(F)F)nn(C)c2Cl)c1 (stereo not drawn) [Example 180] | 80
Cc1cc(C)cc(C2CCCCN2C(=O)c2c(C(F)(F)F)cn(C)c2F)c1 (stereo not drawn) [Example 34] | 100
COc1ccccc1CC1CCCCN1C(=O)c1c(C(F)F)nn(C)c1F (stereo not drawn) [Example 157] | 100
Cn1nc(C(F)F)c(C(=O)N2CCCCC2CCOc2ccc(C(F)(F)F)cn2)c1Cl (stereo not drawn) [Example 195] | 95
Cc1cc(C(=O)N2CCCCC2Cc2ccccc2)c(C)o1 (stereo not drawn) [Example 132] | 90
Cc1cccc(CC2CCCCN2C(=O)c2sc(C)nc2C(F)F)c1 (stereo not drawn) [Example 145] | 80
Cc1ccc(CC2CCCCN2C(=O)c2c(C(F)F)nn(C)c2F)cc1 (stereo not drawn) [Example 147] | 100
Cn1nc(C(F)F)c(C(=S)N2CCCCC2c2ccc(Br)cc2)c1F (stereo not drawn) [Example 105] | 100
Cc1nn(C)c(F)c1C(=O)N1CCCCC1c1cccc(Oc2ccccc2)c1 (stereo not drawn) [Example 113] | 90
Cc1cc(C)cc(OCCC2CCCCN2C(=O)c2c(C(F)F)nn(C)c2F)c1 (stereo not drawn) [Example 181] | 100
Cc1cc(C(=O)N2CCCCC2c2cccc(Br)c2)c(C)o1 (stereo not drawn) [Example 93] | 95
Cn1nc(C(F)F)c(C(=O)N2CCCCC2c2ccc3c(c2)OCCO3)c1F (stereo not drawn) [Example 65] | 100
Cn1nc(C(F)F)c(C(=O)N2CCCCC2CCOc2ccc(-c3ccccc3)cc2)c1F (stereo not drawn) [Example 189] | 95
CC(c1ccccc1Cl)C1CCCCN1C(=O)c1c(C(F)F)nn(C)c1Cl (stereo not drawn) [Example 164] | 100
COc1ccccc1CC1CCCCN1C(=S)c1c(C(F)F)nn(C)c1F (stereo not drawn) [Example 160] | 100
Cn1nc(C(F)F)c(C(=O)N2CCCCC2c2ccc(Cl)cc2Cl)c1Cl (stereo not drawn) [Example 80] | 95
Cc1nn(C)c(F)c1C(=O)N1CCCCC1Cc1ccccc1 (stereo not drawn) [Example 129] | 100
